Patent publication US8293979B2, “Weed controller metabolism proteins, genes, thereof and use of the same” (Sumitomo Chemical Company, Limited, priority 2001, dated 2012)

Experiments:
[1] = test system: present invention protein (A1); format: in vitro ADME, Streptomyces phaeochromogenes IFO12898; conditions: E. coli JM109/pKSN657F cell suspension, compound at 100 ppm, shaking at 30° C., ethyl acetate layer, HPLC
Method: E. coli JM109/pKSN657F was cultured overnight at 37° C. in 3 ml of TB medium containing 50 μg/ml of ampicillin. A milliliter (1 ml) of the obtained culture medium was transferred to 100 ml of TB medium containing 50 μg/ml of ampicillin and cultured at 26° C. When OD660 reached about 0.5, 5-aminolevulinic acid was added to the final concentration of 500 μM, and the culturing was continued. Thirty (30) minutes thereafter, IPTG was added to a final concentration of 1 mM, and there was further culturing for 20 hours.
The cells were recovered from the culture medium, washed with 0.1M tris-HCl buffer (pH7.5) and suspended in 10 ml of 0.1M Tris-HCl buffer containing 1% glucose. Compound (VI) was added to the obtained cell suspension to a final concentration of 100 ppm and that was incubated with shaking at 30° C. At each of 0 hours after and 1 day after the start of shaking, 2 ml of the cell suspension were fractioned. Fifty microliters (50 μl) of 2N HCl were added to each and those were extracted with 2 ml of ethyl acetate. The obtained ethyl acetate layers were analyzed on a HPLC under reaction condition 1. Compared to the concentration of compound (VI) detected from the ethyl acetate layer prepared from the cell suspension at 0 hours after the start of shaking, the concentration of compound (VI) detected from the ethyl acetate later prepared from the cell suspension at 1 day after the start of shaking was lower. Further a peak, which was not detected from the ethyl acetate layer prepared from the cell suspension at 0 hours after the start of shaking, was detected from the ethyl acetate layer prepared from the cell suspension at 1 day after the start of shaking Mass spectrometry of the compound contained in said peak was conducted. […]
Other than utilizing compound (VIII) instead of compound (VI), there was conducted in accordance with the method described in Example 41(6), a culturing of E. coli JM109/pKSN657F, preparation of the cell suspension solution, incubation with shaking of the cell suspension solution to which compound (VIII) was added, reagent preparation from the cell suspension solution and HPLC analysis of the reagents. Compared to the concentration of compound (VIII) detected from the ethyl acetate layer prepared from the cell suspension at 0 hours after the start of shaking, the concentration of compound (VIII) detected from the ethyl acetate layer prepared from the cell suspension at 1 day after the start of shaking was lower. Further two peaks, which were not detected from the ethyl acetate layer prepared from the cell suspension at 0 hours after the start of shaking, were detected from the ethyl acetate layer prepared from the cell suspension at 1 day after the start of shaking Mass spectrometry of the compounds contained in said peaks were conducted. […]

[2] = test system: present invention protein (A11); experiment: Metabolism of compound (X) by the present invention protein (A11), E. coli JM109/pKSN849AF cell suspension; format: in vitro ADME, Streptomyces nogalator IFO13445; conditions: compound at 25 ppm, shaking at 30° C., fractioned at 0 hours and 4 days, ethyl acetate layer, HPLC
Method: Each of E. coli JM109/pKSN849AF and E. coli JM109/pKSN2 was cultured overnight at 37° C. in 3 ml of TB culture containing 50 μg/ml of ampicillin. A milliliter (1 ml) of the obtained culture mediums was transferred to 100 ml of TB medium containing 50 μg/ml of ampicillin and cultured at 26° C. When OD660 reached about 0.5, 5-aminolevulinic acid was added to the final concentration of 500 μM, and the culturing was continued. Thirty (30) minutes thereafter, IPTG was added to a final concentration of 1 mM, and there was further culturing for 18 hours.
The cells were recovered from the culture medium, washed with 0.1M tris-HCl buffer (pH7.5) and suspended in 10 ml of 0.1M Tris-HCl buffer containing 1% glucose. […] The obtained ethyl acetate layers were analyzed on a HPLC under reaction condition 1. Compared to the concentration of compound (X) detected from the ethyl acetate layer prepared from the JM109/pKSN2 cell suspension, the concentration of compound (X) detected from the ethyl acetate layer prepared from the JM109/pKSN849AF cell suspension was lower. Further 3 peaks, which were not detected from the ethyl acetate layer prepared from the JM109/pKSN2 cell suspension, were detected from the ethyl acetate layer prepared from the JM109/pKSN849AF cell suspension. […]

## C=CCOC(=O)C(C)(C)OC(=O)c1cc(-n2c(=O)cc(C(F)(F)F)n(C)c2=O)ccc1Cl [compound (X)]
[1]
  concentration of the compound detected from the cell suspension at 1 day compared to 0 hours after the start of shaking: lower
[2]
  concentration of the compound detected from the JM109/pKSN849AF cell suspension compared to the JM109/pKSN2 cell suspension: lower
